Test results as given in patent US20230072683A1, “PYRIDO-PYRIMIDIN DERIVATIVES AND PHARMACEUTICAL COMPOSITION, FOR USE IN PREVENTING OR TREATING PI3 KINASE RELATED DISEASES, COMPRISING SAME AS ACTIVE INGREDIENT” (BORYUNG PHARMACEUTICAL CO., LTD, priority 2019, published 2023).
Like-named read-outs stand apart in the source and are kept apart here.

Legend:
[1] = target: DNA-PK(h) (Homo sapiens, UniProt P78527); assay: Evaluation of inhibitory activity against DNA-PK (HTRF kinase assay, GST-cMyc-p53 substrate); assay type: biochemical; settings: for inhibition at 0.1 µM: read-out: EXP_VALUE(% Inhibition) DNA-PK(h) 0.1 μM; for inhibition at 0.01 µM: compound concentration 0.01 μM, read-out: EXP_VALUE(% Inhibition) DNA-PK(h) 0.01 μM
In short: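 Human DNA-PK with 50 μM GST-cMyc-p53 substrate; reaction started with Mg/ATP, run 30 min at room temperature, stopped with EDTA. Phospho-Ser15 p53 detected by HTRF (Eu anti-phospho-Ser15, d2 anti-GST), signal = 10000×(Em 665/Em 620).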

[2] = target: PI3K-δ (PI3K(p1108/p857) (h)) (Homo sapiens, UniProt O00329); assay: Evaluation of inhibitory activity against PI3K-δ (HTRF kinase assay); assay type: biochemical; settings: for inhibition at 0.1 µM: read-out: EXP_VALUE(% Inhibition) PI3K-δ 0.1 μM; for inhibition at 0.01 µM: compound concentration 0.01 μM, read-out: EXP_VALUE(% Inhibition) PI3K-δ 0.01 μM
PI3K-δ (PI3K(p1108/p857) (h)), sequence (O00329 whole entry, the tested form may be a part): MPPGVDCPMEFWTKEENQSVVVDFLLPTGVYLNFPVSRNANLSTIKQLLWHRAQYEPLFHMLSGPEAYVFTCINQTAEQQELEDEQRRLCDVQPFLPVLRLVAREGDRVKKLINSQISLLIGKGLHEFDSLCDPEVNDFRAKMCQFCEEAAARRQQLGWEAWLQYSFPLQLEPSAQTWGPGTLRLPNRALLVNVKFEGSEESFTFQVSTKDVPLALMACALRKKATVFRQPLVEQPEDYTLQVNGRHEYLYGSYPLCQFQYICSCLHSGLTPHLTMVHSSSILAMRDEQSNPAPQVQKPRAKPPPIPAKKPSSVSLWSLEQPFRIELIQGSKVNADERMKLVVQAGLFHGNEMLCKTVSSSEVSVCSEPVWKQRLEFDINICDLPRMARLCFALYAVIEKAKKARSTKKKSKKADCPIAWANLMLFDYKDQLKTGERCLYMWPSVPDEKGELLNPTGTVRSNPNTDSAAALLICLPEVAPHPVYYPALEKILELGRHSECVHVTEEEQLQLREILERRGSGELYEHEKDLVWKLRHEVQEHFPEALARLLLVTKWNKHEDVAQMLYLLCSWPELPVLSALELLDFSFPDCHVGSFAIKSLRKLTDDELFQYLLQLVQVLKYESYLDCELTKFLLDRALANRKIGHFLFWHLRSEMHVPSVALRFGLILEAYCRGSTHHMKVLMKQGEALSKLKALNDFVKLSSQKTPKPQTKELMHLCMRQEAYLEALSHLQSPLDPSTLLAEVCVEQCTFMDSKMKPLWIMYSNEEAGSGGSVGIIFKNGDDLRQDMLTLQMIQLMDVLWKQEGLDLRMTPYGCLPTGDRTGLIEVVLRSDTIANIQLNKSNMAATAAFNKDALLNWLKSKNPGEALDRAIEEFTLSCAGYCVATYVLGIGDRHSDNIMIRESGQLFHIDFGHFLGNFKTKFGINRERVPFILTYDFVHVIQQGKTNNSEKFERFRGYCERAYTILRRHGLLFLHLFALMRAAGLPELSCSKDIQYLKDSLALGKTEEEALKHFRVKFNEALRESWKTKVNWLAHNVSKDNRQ
PI3K-δ (PI3K(p1108/p857) (h)), sequence (P27986 whole entry partner, the tested form may be a part): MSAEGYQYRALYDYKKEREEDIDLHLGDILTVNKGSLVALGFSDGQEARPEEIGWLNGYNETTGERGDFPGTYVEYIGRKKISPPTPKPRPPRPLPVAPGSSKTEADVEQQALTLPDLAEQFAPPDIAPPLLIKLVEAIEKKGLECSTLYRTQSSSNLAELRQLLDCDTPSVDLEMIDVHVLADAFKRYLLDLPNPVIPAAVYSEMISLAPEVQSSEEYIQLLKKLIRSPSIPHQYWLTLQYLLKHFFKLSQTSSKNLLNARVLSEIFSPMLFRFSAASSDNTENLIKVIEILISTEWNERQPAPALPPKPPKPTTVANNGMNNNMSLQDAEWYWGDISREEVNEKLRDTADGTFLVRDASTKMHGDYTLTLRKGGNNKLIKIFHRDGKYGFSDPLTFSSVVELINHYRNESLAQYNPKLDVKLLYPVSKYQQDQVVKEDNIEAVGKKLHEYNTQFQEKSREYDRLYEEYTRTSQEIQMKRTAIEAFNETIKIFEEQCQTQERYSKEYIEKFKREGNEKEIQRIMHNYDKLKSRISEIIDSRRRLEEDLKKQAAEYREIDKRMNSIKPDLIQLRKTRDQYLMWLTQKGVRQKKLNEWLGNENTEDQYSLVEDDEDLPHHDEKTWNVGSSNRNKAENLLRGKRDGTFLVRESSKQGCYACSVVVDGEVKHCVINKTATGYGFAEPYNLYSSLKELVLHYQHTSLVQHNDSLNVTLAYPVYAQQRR
In short: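 HTRF read-out (665/620 nm ratio ×10000) used Eu-labelled anti-GST, GST-tagged GRP1 PH domain and streptavidin-allophycocyanin after EDTA/PIP3 stop.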

inhibition at 0.1 µM ([1]; compound at 0.1 μM) | inhibition at 0.1 µM ([2]; compound at 0.1 μM) | inhibition at 0.01 µM [1] | inhibition at 0.01 µM [2] | inhibition at 0.1 µM ([1]; compound concentration 0.1 μM) | inhibition at 0.1 µM ([2]; compound concentration 0.1 μM) | SMILES
16% | 92% | – | – | – | – | C[C@H](Nc1ncnc2[nH]ccc(=O)c12)c1c(Cl)c2cccc(C(=O)NCc3ccncc3)c2c(=O)n1-c1ccccc1 [Example 439, (S)-4-chloro-1-oxo-3-(1-((5-oxo-5,8-dihydropyrido[2,3-d]pyrimidin-4-yl)amino)ethyl)-2-phenyl-N-(pyridin-4-ylmethyl)-1,2-dihydroisoquinoline-8-carboxamide]
– | – | 46% | 80% | – | – | C[C@H](Nc1ncnc2[nH]ccc(=O)c12)c1c(Cl)c2cccc(-c3cnc4nonc4c3)c2c(=O)n1-c1ccccc1 [Example 235, (S)-4-((1-(8-([1,2,5]oxadiazolo[3,4-b]pyridin-6-yl)-4-chloro-1-oxo-2-phenyl-1,2-dihydroisoquinolin-3-yl)ethyl)amino)pyrido[2,3-d]pyrimidin-5(8H)-one]
– | – | 32% | 33% | 75% | 81% | C[C@H](Nc1ncnc2[nH]ccc(=O)c12)c1c(Cl)c2cccc(-c3ccc(N4CCN(C(=O)OC(C)(C)C)CC4)cc3)c2c(=O)n1-c1ccccc1 [Example 138, tert-butyl(S)-4-(4-(4-chloro-1-oxo-3-(1-((5-oxo-5,8-dihydropyrido[2,3-d]pyrimidin-4-yl)amino)ethyl)-2-phenyl-1,2-dihydroisoquinolin-8-yl)phenyl)piperazin-1-carboxylate]
19% | 76% | – | – | – | – | C[C@H](Nc1ncnc2[nH]ccc(=O)c12)c1c(Cl)c2cccc(-c3cc4ccccc4[nH]3)c2c(=O)n1-c1ccccc1 [Example 380, (S)-4-((1-(4-chloro-8-(1H-indol-2-yl)-1-oxo-2-phenyl-1,2-dihydroisoquinolin-3-yl)ethyl)amino)pyrido[2,3-d]pyrimidin-5(8H)-one]
– | – | 8% | 46% | – | – | C[C@H](Nc1ncnc2[nH]ccc(=O)c12)c1c(Cl)c2cccc(COCC(C)(C)CO)c2c(=O)n1-c1ccccc1 [Example 359, (S)-4-((1-(4-chloro-8-((3-hydroxy-2,2-dimethylpropoxy)methyl)-1-oxo-2-phenyl-1,2-dihydroisoquinolin-3-yl)ethyl)amino)pyrido[2,3-d]pyrimidin-5(8H)-one]
18% | 9% | – | – | – | – | C[C@H](Nc1ncnc2[nH]ccc(=O)c12)c1c(Cl)c2cccc([S@@](=N)(=O)c3ncccn3)c2c(=O)n1-c1ccccc1 [Example 422, 4-(((S)-1-(4-chloro-1-oxo-2-phenyl-8-((R)-pyrimidine-2-sulfonimidoyl)-1,2-dihydroisoquinolin-3-yl)ethyl)amino)pyrido[2,3-d]pyrimidin-5(8H)-one]
– | – | 4% | 17% | 48% | 72% | C[C@H](Nc1ncnc2[nH]ccc(=O)c12)c1c(Cl)c2cccc(-c3ccc(SC(C)(C)C)cc3)c2c(=O)n1-c1ccccc1 [Example 144, (S)-4-((1-(8-(4-(tert-butylthio)phenyl)-4-chloro-1-oxo-2-phenyl-1,2-dihydroisoquinolin-3-yl)ethyl)amino)pyrido[2,3-d]pyrimidin-5(8H)-one]
– | – | -13% | 4% | 8% | 25% | C[C@H](Nc1ncnc2[nH]ccc(=O)c12)c1c(Cl)c2cccc(N3C[C@]4(C)C[C@H]3CC(C)(C)C4)c2c(=O)n1-c1ccccc1 [Example 327, 4-(((S)-1-(4-chloro-1-oxo-2-phenyl-8-((1S,5R)-1,3,3-trimethyl-6-azabicyclo[3.2.1]octan-6-yl)-1,2-dihydroisoquinolin-3-yl)ethyl)amino)pyrido[2,3-d]pyrimidin-5(8H)-one]
– | – | 1% | 9% | – | – | C[C@H](Nc1ncnc2[nH]ccc(=O)c12)c1c(Cl)c2cccc(Nc3ccc(C(F)(F)F)cc3)c2c(=O)n1-c1ccccc1 [Example 346, (S)-4-((1-(4-chloro-1-oxo-2-phenyl-8-((4-(trifluoromethyl)phenyl)amino)-1,2-dihydroisoquinolin-3-yl)ethyl)amino)pyrido[2,3-d]pyrimidin-5(8H)-one]
– | – | 48% | 69% | – | – | C[C@H](Nc1ncnc2[nH]ccc(=O)c12)c1c(Cl)c2cccc(-c3ccc(OCC(F)(F)F)nc3)c2c(=O)n1-c1ccccc1 [Example 147, (S)-4-((1-(4-chloro-1-oxo-2-phenyl-8-(6-(2,2,2-trifluoroethoxy)pyridin-3-yl)-1,2-dihydroisoquinolin-3-yl)ethyl)amino)pyrido[2,3-d]pyrimidin-5(8H)-one]
– | – | 12% | 36% | 28% | 76% | C[C@H](Nc1ncnc2[nH]ccc(=O)c12)c1c(Cl)c2cccc(N3CC4CC=CCC4C3)c2c(=O)n1-c1ccccc1 (stereo partly drawn) [Example 8, 4-(((1S)-1-(4-chloro-1-oxo-2-phenyl-8-(3a, 4,7,7a-tetrahydro-1H-isoindol-2 (3H)-yl)-1,2-dihydroisoquinolin-3-yl)ethyl)amino)pyrido[2,3-d]pyrimidin-5(8H)-one]
– | – | 0% | 10% | – | – | COc1ccc(Nc2cccc3c(Cl)c([C@H](C)Nc4ncnc5[nH]ccc(=O)c45)n(-c4ccccc4)c(=O)c23)cc1 [Example 345, (S)-4-((1-(4-chloro-8-((4-methoxyphenyl)amino)-1-oxo-2-phenyl-1,2-dihydroisoquinolin-3-yl)ethyl)amino)pyrido[2,3-d]pyrimidin-5(8H)-one]
– | – | 54% | 99% | 89% | 109% | C[C@H](Nc1ncnc2[nH]ccc(=O)c12)c1c(Cl)c2cccc(-c3ccccc3)c2c(=O)n1-c1ccccc1 [Example 62, (S)-4-((1-(4-chloro-1-oxo-2,8-diphenyl-1,2-dihydroisoquinolin-3-yl)ethyl)amino)pyrido[2,3-d]pyrimidin-5(8H)-one]
14% | 21% | – | – | – | – | COc1cc(-n2ccc(=O)c3c(N[C@@H](C)c4c(Cl)c5ccccc5c(=O)n4-c4ccccc4)ncnc32)ccn1 [Example 374, (S)-4-((1-(4-chloro-1-oxo-2-phenyl-1,2-dihydroisoquinolin-3-yl)ethyl)amino)-8-(2-methoxypyridin-4-yl)pyrido[2,3-d]pyrimidin-5(8H)-one]
– | – | 79% | 68% | 97% | 95% | C[C@H](Nc1ncnc2[nH]ccc(=O)c12)c1c(Cl)c2cccc(-c3ccc4[nH]cnc4c3)c2c(=O)n1-c1ccccc1 [Example 125, (S)-4-((1-(8-(1H-benzo[d]imidazol-5-yl)-4-chloro-1-oxo-2-phenyl-1,2-dihydroisoquinolin-3-yl)ethyl)amino)pyrido[2,3-d]pyrimidin-5(8H)-one]
46% | 80% | – | – | – | – | CC(=O)c1ncc(-c2cccc3c(Cl)c([C@H](C)Nc4ncnc5[nH]ccc(=O)c45)n(-c4ccccc4)c(=O)c23)cn1 [Example 403, (S)-4-((1-(8-(2-acetylpyrimidin-5-yl)-4-chloro-1-oxo-2-phenyl-1,2-dihydroisoquinolin-3-yl)ethyl)amino)pyrido[2,3-d]pyrimidin-5(8H)-one]
– | – | 7% | 18% | 25% | 62% | C[C@H](Nc1ncnc2[nH]ccc(=O)c12)c1c(Cl)c2cccc(N(C)Cc3ccccc3)c2c(=O)n1-c1ccccc1 [Example 319, (S)-4-((1-(8-(benzyl(methyl)amino)-4-chloro-1-oxo-2-phenyl-1,2-dihydroisoquinolin-3-yl)ethyl)amino)pyrido[2,3-d]pyrimidin-5(8H)-one]
63% | 47% | – | – | – | – | C[C@H](Nc1ncnc2[nH]ccc(=O)c12)c1c(Cl)c2cccc(OCc3ccncc3)c2c(=O)n1-c1ccccc1 [Example 429, (S)-4-((1-(4-chloro-1-oxo-2-phenyl-8-(pyridin-4-ylmethoxy)-1,2-dihydroisoquinolin-3-yl)ethyl)amino)pyrido[2,3-d]pyrimidin-5(8H)-one]
– | – | 56% | 75% | 91% | 67% | C[C@H](Nc1ncnc2[nH]ccc(=O)c12)c1c(Cl)c2cccc(-c3cccc(F)c3F)c2c(=O)n1-c1ccccc1 [Example 129, (S)-4-((1-(4-chloro-8-(2,3-difluorophenyl)-1-oxo-2-phenyl-1,2-dihydroisoquinolin-3-yl)ethyl)amino)pyrido[2,3-d]pyrimidin-5(8H)-one]
– | – | 66% | 35% | – | – | COc1cc(-c2cccc3c(Cl)c([C@H](C)Nc4ncnc5[nH]ccc(=O)c45)n(-c4ccccc4)c(=O)c23)cnc1OC [Example 170, (S)-4-((1-(4-chloro-8-(5,6-dimethoxypyridin-3-yl)-1-oxo-2-phenyl-1,2-dihydroisoquinolin-3-yl)ethyl)amino)pyrido[2,3-d]pyrimidin-5(8H)-one]

SMILES | inhibition at 0.1 µM ([1]; compound at 0.1 μM) | inhibition at 0.1 µM ([2]; compound at 0.1 μM) | inhibition at 0.01 µM [1] | inhibition at 0.01 µM [2] | inhibition at 0.1 µM ([1]; compound concentration 0.1 μM) | inhibition at 0.1 µM ([2]; compound concentration 0.1 μM)
C[C@H](Nc1ncnc2[nH]ccc(=O)c12)c1c(Cl)c2cccc(-c3ccc([Si](C)(C)C)cc3)c2c(=O)n1-c1ccccc1 [Example 178, (S)-4-((1-(4-chloro-1-oxo-2-phenyl-8-(4-(trimethylsilyl)phenyl)-1,2-dihydroisoquinolin-3-yl)ethyl)amino)pyrido[2,3-d]pyrimidin-5(8H)-one] | – | – | -4% | 9% | – | –
